Measured values taken from patent US11220524B2, “Selective inhibitors of protein arginine methyltransferase 5 (PRMT5)” (PRELUDE THERAPEUTICS, INCORPORATED, priority 2017, dated 2022).

How the values were obtained:
[1] = system: sDMA in Granta-519 tumors; experiment: In vivo pharmacodynamic effect: sDMA levels in tumor samples of Granta-519 mouse xenograft model; details: 30 mg/kg, separate experiment
Description: (§1) In Vivo Pharmacodynamic Effect of Example 36 in Granta-519 Mouse Xenograft Model.
(§2) Granta-519 cells was maintained in DMEM medium supplemented with 10% fetal bovine serum and 2 mM L-Glutamine at 37° C. in an atmosphere of 5% C02 in air. Cells in exponential growth phase were harvested and 1×10^7 cells in 0.1 mL of PBS with Matrigel (1:1) were injected subcutaneously at the right lower flank region of each mouse for tumor development. The treatments were started when the mean tumor size reaches approximately 300-400 mm^3. […] Example 36 or vehicle (0.5% methylcellulose+0.1% Tween 80) were administered orally (BID for Example 36, QD for vehicle) at a dose of 25 mg/kg for 6 days. Body weights and tumor size were measured thrice weekly after randomization. Animals were euthanized 4 hours after last dosing on day 6, and blood and tumor samples were collected for analysis.
To measure sDMA levels in tumor samples, tumors from each mouse were weighted and homogenized in RIPA buffer supplemented with protease inhibitor (cOmplete™, EDTA-free Protease Inhibitor Cocktail, Roche). […] Total protein concentrations of lysate were determined by BCA assay (ThermoFisher Scientific, Catalog #: 23225). Equal amount of total proteins from each tumor were separated on SDS-PAGE gel, and sDMA levels were determined by WB as described previously. […]

PRMT5/MEP50 complex = PRMT5/MEP50 complex (Homo sapiens (Human), UniProt O14744); experiment: Biochemical assay: PRMT5/MEP50 methylation of histone H2A with 3H-SAM, filter plate scintillation; details: biochemical potency; read-out: PRTMT5/MEP50 IC50
Outline: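 5 nM PRMT5/MEP50 preincubated with compound 15–20 min at room temperature, with 5 μM histone H2A as substrate; reaction started with 1 μM 3H-SAM and run 60 min at 30 °C. TCA-stopped, filter-captured methylation counted by scintillation; IC50 from 4-parameter Hill fit.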

[2] = In vivo pharmacokinetic study in rat (i.v. and p.o.); details: rat
Description: In Vivo Pharmacokinetic Properties of Example 36.
In a rat (SD, male, non-fasted) non-crossover cassette PK study, Example 36 was dosed at 0.25 mg/kg via i.v. administration (N=3) and 2 mg/kg via oral gauge (p.o.) (N=3) with other 3 compounds.
In Vivo Pharmacokinetic Properties of Example 92.
In a rat (SD, male, non-fasted) non-crossover PK study, Example 92 was dosed at 1 mg/kg (DMA: 20% HPBCD=5:95, solution) via i.v. administration (N=2) and 1 mg/kg (0.5% Na CMC+0.5% Tween80, solution) via oral gauge (p.o.) (N=2).

[3] = system: Symmetric Di-Methyl Arginine (sDMA) in Granta-519 cells; experiment: Western blot for symmetric di-methyl arginine (sDMA) marks in Granta cells, 3 days treatment; type: cell-based; details: Homo sapiens, Granta-519, 72 h; Granta cell line, 3 days
Granta-519 cells = experiment: Cell proliferation assay on Granta-519 cells (CCK-8, day 10); type: cell-based; details: Homo sapiens, Granta-519, 240 h, Granta cell line, read-out: Prolif. IC50
Description: Cell Proliferation Assay to Determine IC50 on Granta-519 Cells
Granta-519 cells were maintained in PRMI 1640 (Corning Cellgro, Catalog #: 10-040-CV) medium supplemented with 10% v/v FBS (GE Healthcare, Catalog #: SH30910.03). Compounds were dissolved in DMSO to make 10 mM stocks and stored at −20° C. Nine-point, 3-fold serial dilutions were made with DMSO with top concentration at 1 mM (working stocks).
On day of experiment, compound working stocks were further diluted at 1:50 with fresh medium in 96 well plate, and 10 μL of diluted drugs were added to a new 96 well plate for proliferation assay. Cells growing at exponential phase were spun down at 1500 rpm for 4 min and resuspend in fresh medium to reach a density of 0.5×10^6 cells/ml. 200 ul of cells were added to 96 well plate containing diluted drugs and incubated for 3 days. DMSO was used a vehicle control.
One day 3, 10 μL of Cell Counting Kit-8 (CCK-8, Jojindo, CK04-13) solution was added to a new 96 well plate. Cells incubated with drugs for 3 days were resuspended by pipetting up and down, and 100 μL of cells were transferred to 96 well plate containing CCK-8 reagent to measure viable cells. Plates were incubated in C02 incubator for 2 hours and OD450 values were measured with a microplate reader (iMark microplate reader, Bio-Rad).
For re-plating, compound working stocks were diluted at 1:50 with fresh medium and 10 μL of diluted drugs were added to anew 96 well plate. Cells from Day 3plate (50 ul) were added to 96 well plate containing fresh drug and additional 150 of fresh medium was added to reach 200 ul volume. Plate was returned to CO2incubator and incubated for 3more days. Viable cells measurement and re-plating were repeated on day 6, and the final viable cells measurement was taken on day 10.
Percentage of viable cells, relative to DMSO vehicle control, were calculated and plotted in Graphpad Prism ([Inhibitor] vs. normalized response-Variable slope) to determine proliferation IC50 values on day 10.

[4] = system: Granta-519 mouse xenograft; experiment: Tumor growth inhibition and body weight in Granta-519 mouse xenograft model; type: in vivo
Description: as §1, §2
Example 92 or vehicle (0.5% Na CMC+0.5% Tween80, suspension) were administered orally (QD for Example 92, QD for vehicle) at a dose of 50 mg/kg for 14 days. Body weights and tumor size were measured every 3 to 4 days after randomization. Animals were euthanized 4 hours after last dosing, and blood and tumor samples were collected for analysis.

Sequence of PRMT5/MEP50 complex (O14744 whole entry): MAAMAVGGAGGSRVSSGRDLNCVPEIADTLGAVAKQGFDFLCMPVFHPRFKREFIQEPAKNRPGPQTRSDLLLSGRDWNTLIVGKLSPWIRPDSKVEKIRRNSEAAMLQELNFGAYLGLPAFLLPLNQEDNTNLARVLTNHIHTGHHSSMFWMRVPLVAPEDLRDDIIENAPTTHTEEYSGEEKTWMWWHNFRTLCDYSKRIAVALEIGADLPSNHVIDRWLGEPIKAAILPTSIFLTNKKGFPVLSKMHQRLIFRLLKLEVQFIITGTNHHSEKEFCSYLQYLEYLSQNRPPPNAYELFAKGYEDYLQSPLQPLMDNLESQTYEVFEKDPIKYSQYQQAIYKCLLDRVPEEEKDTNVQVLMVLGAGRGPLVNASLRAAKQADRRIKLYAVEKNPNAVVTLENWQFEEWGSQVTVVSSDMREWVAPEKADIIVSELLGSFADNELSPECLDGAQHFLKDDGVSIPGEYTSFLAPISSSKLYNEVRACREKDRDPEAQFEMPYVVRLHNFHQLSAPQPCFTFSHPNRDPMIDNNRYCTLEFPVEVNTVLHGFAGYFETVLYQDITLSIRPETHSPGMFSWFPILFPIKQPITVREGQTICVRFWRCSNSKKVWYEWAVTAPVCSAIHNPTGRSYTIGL
Sequence of PRMT5/MEP50 complex (Q9BQA1 whole entry partner): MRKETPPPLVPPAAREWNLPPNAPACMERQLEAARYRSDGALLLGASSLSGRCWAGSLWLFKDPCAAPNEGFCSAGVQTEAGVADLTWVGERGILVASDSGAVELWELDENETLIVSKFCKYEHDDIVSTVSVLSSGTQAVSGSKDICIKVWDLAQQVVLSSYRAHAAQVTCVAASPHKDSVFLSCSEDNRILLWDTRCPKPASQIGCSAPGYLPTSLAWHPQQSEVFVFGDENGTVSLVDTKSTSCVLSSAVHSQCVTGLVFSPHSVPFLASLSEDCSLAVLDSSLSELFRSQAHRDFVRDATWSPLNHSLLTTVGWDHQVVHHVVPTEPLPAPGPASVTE

- IC50 (PRMT5/MEP50 complex): 3.6 nM
- metabolite detection in blood samples ([2]; after dosing of Example 92 at 1 mg/kg): detected in blood samples
- AUC0-inf of metabolite ([2]; metabolite after dosing of Example 92 at 1 mg/kg): 284 ng·kg·h/mL/mg
- IC50 [3]: 8.2 nM
Structure (SMILES): C[C@@](O)(c1ccc(Cl)c(Cl)c1)[C@H]1O[C@@H](n2cnc3c(N)ncnc32)[C@H](O)[C@@H]1O [Example 1-C, (2R,3R,4S,5S)-2-(6-amino-9H-purin-9-yl)-5-((R)-1-(3,4-dichlorophenyl)-1-hydroxyethyl)tetrahydrofuran-3,4-diol]
- sDMA in tumor samples [1]: no detectable amount of sDMA
- IC50 (Granta-519 cells): 44 nM
- body weight gain ([4]; 30 mg/kg, separate experiment): 6%
- tumor growth inhibition ([4]; 30 mg/kg, separate experiment, N=5): 61%
- metabolite detection in blood and tumor samples ([4]; mouse xenograft, after Example 92 at 50 mg/kg QD for 14 days): detected in all blood and tumor samples
